Laboratory results: patent US20080214599A1, “Use of Par-1/Par-4 Inhibitors for Treating or Preventing Vascular Diseases” (priority 2005, published 2008)

Columns and labels:
Type in all cases: in vivo, human
CD165 (GP37) = assay: Flow cytometry, platelet CD165 (GP37) in patients undergoing coronary stenting; set-up: CD165 (GP37), flow cytometry: unit not given here
Protocol: (§1) The study sought to compare the antiplatelet properties of prasugrel and clopidogrel in the frame of a Phase 2 randomized trial. Specifically, nine patients undergoing coronary stenting were randomized to one of three arms of prasugrel (40-60-60 mg loading, and 7.5-10-15 mg maintenance daily dose), or clopidogrel (300 mg/75 mg). Aspirin and GP IIb/IIIa inhibitors were allowed.

Thrombospondin = assay: Flow cytometry, platelet thrombospondin in patients undergoing coronary stenting; set-up: Thrombospondin, flow cytometry: unit not given here
Protocol: as §1

PAR-1/PAR-4 (SPAN12) = assay: Flow cytometry, SPAN12 (PAR-1/PAR-4) in patients undergoing coronary stenting
Protocol: as §1

CD62p (P-selectin) = assay: Flow cytometry, platelet surface expression of CD62p (P-selectin) in patients undergoing coronary stenting; set-up: CD62p (P-selectin), flow cytometry: unit not given here
Protocol: as §1

CD31 (PECAM-1) = assay: Flow cytometry, platelet surface expression of CD31 (PECAM-1) in patients undergoing coronary stenting
Protocol: as §1

CD42 (GP-Ib) = assay: Flow cytometry, platelet surface expression of CD42 (GP-Ib) in patients undergoing coronary stenting; set-up: CD42 (GP-Ib), flow cytometry: unit not given here
Protocol: as §1

CD40 ligand = assay: Flow cytometry, platelet CD40 ligand in patients undergoing coronary stenting; set-up: CD40 ligand, flow cytometry: unit not given here
Protocol: as §1

PAR-1/PAR-4 (WEDE15) = assay: Flow cytometry, WEDE15 (PAR-1/PAR-4) in patients undergoing coronary stenting
Protocol: as §1

CD151+CD14 = assay: Flow cytometry, CD151+CD14 in patients undergoing coronary stenting; set-up: unit not given here
Protocol: as §1

[1] = system: platelets (ADP-induced aggregation); assay: ADP-induced platelet aggregation in stented patients; settings: independent of the dosing regimen; vs patients treated with clopidogrel
Protocol: (§2) The study sought to compare the antiplatelet properties of prasugrel and clopidogrel in the frame of a Phase 2 randomized trial. Specifically, nine patients undergoing coronary stenting were randomized to one of three arms of prasugrel (40-60-60 mg loading, and 7.5-10-15 mg maintenance daily dose), or clopidogrel (300 mg/75 mg). Aspirin and GP IIb/IIIa inhibitors were allowed. […] Applicants believe the above results are significant and establish a correlation between use of CS-747 (prasugrel) and inhibition of the activity or activation of PAR-1 and/or PAR-4 receptors. […] The correlations or trends shown in table 1 are independent of aspirin or Gb-11b inhibitor use by some patients at baseline. Confounding effects by aspirin or GB-IIb/IIIA use at baseline should be absent at 30 days.

[2] = system: GPIIb/IIIa activity with PAC-1 antibody; assay: GPIIb/IIIa activity with PAC-1 antibody in stented patients; settings: independent of the dosing regimen; vs patients treated with clopidogrel
Protocol: as §2

platelets = assay: Ultegra Analyzer platelet function in stented patients; settings: independent of the dosing regimen; vs patients treated with clopidogrel
Protocol: as §2

[3] = system: platelets (collagen-induced aggregation); assay: Collagen-induced platelet aggregation in stented patients; settings: independent of the dosing regimen; vs patients treated with clopidogrel
Protocol: as §2

GPIIb/IIIa antigen = assay: Surface expression of GPIIb/IIIa antigen in stented patients; settings: independent of the dosing regimen; vs patients treated with clopidogrel
Protocol: as §2

[4] = 30 days after stent implantation
[5] = Baseline, patients undergoing coronary stenting
[6] = independent of the dosing regimen, vs patients treated with clopidogrel

COC(=O)[C@H](c1ccccc1Cl)N1CCc2sccc2C1 [clopidogrel, reference compound]
CD165 (GP37), flow cytometry (CD165 (GP37); 4 hr after stent implantation): 17.8 ± 5.8
CD165 (GP37), flow cytometry (CD165 (GP37); 24 hr after stent implantation): 18.3 ± 4.2
CD165 (GP37), flow cytometry (CD165 (GP37); [4]): 19.7 ± 3.0
CD165 (GP37), flow cytometry (CD165 (GP37); [5]): 23.9 ± 5.2
Thrombospondin, flow cytometry (Thrombospondin; 4 hr after stent implantation): 6.7 ± 2.0
Thrombospondin, flow cytometry (Thrombospondin; 24 hr after stent implantation): 7.8 ± 2.8
Thrombospondin, flow cytometry (Thrombospondin; [4]): 8.1 ± 1.3
Thrombospondin, flow cytometry (Thrombospondin; [5]): 7.1 ± 2.0
SPAN12 (PAR-1/PAR-4), flow cytometry (PAR-1/PAR-4 (SPAN12); 4 hr after stent implantation): 16.2 ± 5.0
SPAN12 (PAR-1/PAR-4), flow cytometry (PAR-1/PAR-4 (SPAN12); 24 hr after stent implantation): 17.1 ± 5.3
SPAN12 (PAR-1/PAR-4), flow cytometry (PAR-1/PAR-4 (SPAN12); [4]): 6.2 ± 0.9
SPAN12 (PAR-1/PAR-4), flow cytometry (PAR-1/PAR-4 (SPAN12); [5]): 18.0 ± 4.8
CD62p (P-selectin), flow cytometry (CD62p (P-selectin); 4 hr after stent implantation): 10.0 ± 3.5
CD62p (P-selectin), flow cytometry (CD62p (P-selectin); 24 hr after stent implantation): 9.8 ± 3.6
CD62p (P-selectin), flow cytometry (CD62p (P-selectin); [4]): 9.6 ± 1.4
CD62p (P-selectin), flow cytometry (CD62p (P-selectin); [5]): 10.4 ± 3.4
CD31 (PECAM-1), flow cytometry (CD31 (PECAM-1); 4 hr after stent implantation): 41.6 ± 17.3
CD31 (PECAM-1), flow cytometry (CD31 (PECAM-1); 24 hr after stent implantation): 38.0 ± 18.9
CD31 (PECAM-1), flow cytometry (CD31 (PECAM-1); [4]): 58.6 ± 8.4
CD31 (PECAM-1), flow cytometry (CD31 (PECAM-1); [5]): 62.9 ± 12.2
CD42 (GP-Ib), flow cytometry (CD42 (GP-Ib); 4 hr after stent implantation): 134.2 ± 37.3
CD42 (GP-Ib), flow cytometry (CD42 (GP-Ib); 24 hr after stent implantation): 129.8 ± 37.6
CD42 (GP-Ib), flow cytometry (CD42 (GP-Ib); [4]): 168.0 ± 48.0
CD42 (GP-Ib), flow cytometry (CD42 (GP-Ib); [5]): 135.2 ± 35.1
CD40 ligand, flow cytometry (CD40 ligand; 4 hr after stent implantation): 4.1 ± 1.3
CD40 ligand, flow cytometry (CD40 ligand; 24 hr after stent implantation): 4.2 ± 1.3
CD40 ligand, flow cytometry (CD40 ligand; [4]): 6.5 ± 1.6
CD40 ligand, flow cytometry (CD40 ligand; [5]): 5.5 ± 1.3
WEDE15 (PAR-1/PAR-4), flow cytometry (PAR-1/PAR-4 (WEDE15); 4 hr after stent implantation): 20.9 ± 9.3
WEDE15 (PAR-1/PAR-4), flow cytometry (PAR-1/PAR-4 (WEDE15); 24 hr after stent implantation): 25.7 ± 9.6
WEDE15 (PAR-1/PAR-4), flow cytometry (PAR-1/PAR-4 (WEDE15); [4]): 16.5 ± 3.2
WEDE15 (PAR-1/PAR-4), flow cytometry (PAR-1/PAR-4 (WEDE15); [5]): 30.2 ± 10.9
CD151+CD14, flow cytometry (CD151+CD14; 4 hr after stent implantation): 62.6 ± 14.4
CD151+CD14, flow cytometry (CD151+CD14; 24 hr after stent implantation): 69.5 ± 22.4
CD151+CD14, flow cytometry (CD151+CD14; [4]): 66.0 ± 9.5
CD151+CD14, flow cytometry (CD151+CD14; [5]): 67.1 ± 14.5

CC(=O)Oc1cc2c(s1)CCN(C(C(=O)C1CC1)c1ccccc1F)C2 (stereo not drawn) [prasugrel, 2-acetoxy-5-(α-cyclopropylcarbonyl-2-fluorobenzyl)-4,5,6,7-tetrahydrothieno[3,2-c]pyridine]
CD165 (GP37), flow cytometry (CD165 (GP37); 4 hr after stent implantation): 17.8 ± 5.6
CD165 (GP37), flow cytometry (CD165 (GP37); 24 hr after stent implantation): 15.8 ± 5.7
CD165 (GP37), flow cytometry (CD165 (GP37); [4]): 12.2 ± 2.8
CD165 (GP37), flow cytometry (CD165 (GP37); [5]): 24.7 ± 2.8
Platelet inhibition by surface expression of GP37, compared with clopidogrel (CD165 (GP37); [6]): more potent platelet inhibition
Thrombospondin, flow cytometry (Thrombospondin; 4 hr after stent implantation): 6.4 ± 1.1
Thrombospondin, flow cytometry (Thrombospondin; 24 hr after stent implantation): 6.7 ± 1.7
Thrombospondin, flow cytometry (Thrombospondin; [4]): 4.0 ± 0.7
Thrombospondin, flow cytometry (Thrombospondin; [5]): 7.3 ± 2.2
Platelet inhibition by surface expression of thrombospondin receptor, compared with clopidogrel (Thrombospondin; [6]): more potent platelet inhibition
SPAN12 (PAR-1/PAR-4), flow cytometry (PAR-1/PAR-4 (SPAN12); 4 hr after stent implantation): 13.3 ± 2.5
SPAN12 (PAR-1/PAR-4), flow cytometry (PAR-1/PAR-4 (SPAN12); 24 hr after stent implantation): 12.0 ± 2.7
SPAN12 (PAR-1/PAR-4), flow cytometry (PAR-1/PAR-4 (SPAN12); [4]): 6.6 ± 1.7
SPAN12 (PAR-1/PAR-4), flow cytometry (PAR-1/PAR-4 (SPAN12); [5]): 19.5 ± 5.4
CD62p (P-selectin), flow cytometry (CD62p (P-selectin); 4 hr after stent implantation): 8.9 ± 3.3
CD62p (P-selectin), flow cytometry (CD62p (P-selectin); 24 hr after stent implantation): 7.9 ± 1.4
CD62p (P-selectin), flow cytometry (CD62p (P-selectin); [4]): 5.2 ± 2.3
CD62p (P-selectin), flow cytometry (CD62p (P-selectin); [5]): 10.8 ± 4.1
Platelet inhibition by surface expression of P-selectin, compared with clopidogrel (CD62p (P-selectin); [6]): more potent platelet inhibition
Platelet inhibition by ADP-induced aggregation, compared with clopidogrel [1]: more potent platelet inhibition
CD31 (PECAM-1), flow cytometry (CD31 (PECAM-1); 4 hr after stent implantation): 52.5 ± 29.3
CD31 (PECAM-1), flow cytometry (CD31 (PECAM-1); 24 hr after stent implantation): 52.8 ± 28.7
CD31 (PECAM-1), flow cytometry (CD31 (PECAM-1); [4]): 24.6 ± 24.4
CD31 (PECAM-1), flow cytometry (CD31 (PECAM-1); [5]): 69.9 ± 19.3
Platelet inhibition by surface expression of PECAM-1, compared with clopidogrel (CD31 (PECAM-1); [6]): more potent platelet inhibition
CD42 (GP-Ib), flow cytometry (CD42 (GP-Ib); 4 hr after stent implantation): 138.7 ± 38.3
CD42 (GP-Ib), flow cytometry (CD42 (GP-Ib); 24 hr after stent implantation): 154.0 ± 39.6
CD42 (GP-Ib), flow cytometry (CD42 (GP-Ib); [4]): 110.0 ± 47.7
CD42 (GP-Ib), flow cytometry (CD42 (GP-Ib); [5]): 145.9 ± 35.5
Platelet inhibition by surface expression of GPIb, compared with clopidogrel (CD42 (GP-Ib); [6]): more potent platelet inhibition
Platelet inhibition by GPIIb/IIIa activity with PAC-1 antibody, compared with clopidogrel [2]: more potent platelet inhibition
Platelet inhibition by Ultegra Analyzer, compared with clopidogrel (platelets): more potent platelet inhibition
CD40 ligand, flow cytometry (CD40 ligand; 4 hr after stent implantation): 4.8 ± 1.4
CD40 ligand, flow cytometry (CD40 ligand; 24 hr after stent implantation): 4.6 ± 1.1
CD40 ligand, flow cytometry (CD40 ligand; [4]): 3.7 ± 1.3
CD40 ligand, flow cytometry (CD40 ligand; [5]): 6.9 ± 0.8
Platelet inhibition by surface expression of CD40-ligand, compared with clopidogrel (CD40 ligand; [6]): more potent platelet inhibition
Platelet inhibition by collagen-induced aggregation, compared with clopidogrel [3]: more potent platelet inhibition
Platelet inhibition by surface expression of GPIIb/IIIa antigen, compared with clopidogrel (GPIIb/IIIa antigen): more potent platelet inhibition
WEDE15 (PAR-1/PAR-4), flow cytometry (PAR-1/PAR-4 (WEDE15); 4 hr after stent implantation): 17.0 ± 6.2
WEDE15 (PAR-1/PAR-4), flow cytometry (PAR-1/PAR-4 (WEDE15); 24 hr after stent implantation): 19.6 ± 8.4
WEDE15 (PAR-1/PAR-4), flow cytometry (PAR-1/PAR-4 (WEDE15); [4]): 15.3 ± 5.9
WEDE15 (PAR-1/PAR-4), flow cytometry (PAR-1/PAR-4 (WEDE15); [5]): 37.0 ± 9.8
CD151+CD14, flow cytometry (CD151+CD14; 4 hr after stent implantation): 60.1 ± 18.9
CD151+CD14, flow cytometry (CD151+CD14; 24 hr after stent implantation): 62.7 ± 29.2
CD151+CD14, flow cytometry (CD151+CD14; [4]): 61.8 ± 23.0
CD151+CD14, flow cytometry (CD151+CD14; [5]): 73.0 ± 11.1
